Measured values reported in patent US7084239B1, “Cancer peptides of NY-ESO-1/CAG-3” (The United States of America as represented by the …, priority 1997, dated 2006).

Columns and labels:
Type in all cases: cell-based, human
CTL clone 2 [1] = test: Chromium release cytolysis of peptide-pulsed target cells by CTL clone 2; conditions: 4-h chromium release, E:T ratio of 20:1 (FIG. 7B)
Text: FIGS. 7A–7C. An alternative open reading frame of the NY-ESO-1 gene and antigenic peptides recognized by CTL. FIG. 7A. Identification of antigenic peptides from the ORF2. Thirty peptides were synthesized based on all potential ORFs and screened. Representative data are shown here. Seven peptides derived from ORF2 (see FIG. 3A) were pulsed on HLA-A31 positive 1510EBV B cells and tested for T cell recognition based on GM-CSF release ([…], SEQ ID NO: 123; […], SEQ ID NO: 124; […], SEQ ID NO: 125; […], SEQ ID NO: 46; […], SEQ ID NO: 47; […], SEQ ID NO: 126; and […], SEQ ID NO: 127). 1510 EBV alone was used as a negative control. FIG. 7B. 1510EBV B cells were labeled with chromium for 2 h. The ESORF2-10-18 peptide was then pulsed on the chromium-labeled […] (solid square) and HLA-A31-negative 1102EBV (open circle) at different concentrations. 1510EBV pulsed with ESO10-53, which was recognized by CTL clone 5, was used for the specificity control (solid triangle). After peptide incubation and three washes, cytolysis of target cells by CTL-clone 2 was determined in a 4-h chromium release assay at an E:T ratio of 20:1. FIG. 7C. Several tumor lines and fresh breast tumors were tested for recognition by CTL clone 2 to determine whether the ORF2 is translated in different tumors. 1510EBV B cells pulsed with […] (SEQ ID NO: 25) (ESO10-53), […] (SEQ ID NO: 47) (ORF2-10-18), or alone were included to evaluate the reactivity and specificity of CTL clone 2 and 5. […]
Cytolytic assay was done as previously described (Kawakami, Y et al., 1994, Proc. Natl. Acad. Sci. USA 91:6458–62). […] The cells were washed again, counted, and then mixed with TIL586 or CTL clone 5 at the indicated ratio of effector: targets (E:T). Chromium release was measured after 4 h incubation. […] Percentage of specific lysis was determined from the equation (A−B)/(C−B)×100 where A is lysis of 586EBV B cells by TIL586 or clone 5 in the presence of a peptide, B is spontaneous release from 586EBV B cells in presence of the same peptide but in the absence of effector cells, and C is the maximum chromium release. […]

CTL clone 2 [2] = test: T cell recognition (GM-CSF release) of peptide-pulsed EBV B cells by CTL clone 2; conditions: peptide pulsed onto 1510EBV or 586EBV B cells
Text: FIGS. 7A–7C. An alternative open reading frame of the NY-ESO-1 gene and antigenic peptides recognized by CTL. FIG. 7A. Identification of antigenic peptides from the ORF2. Thirty peptides were synthesized based on all potential ORFs and screened. Representative data are shown here. Seven peptides derived from ORF2 (see FIG. 3A) were pulsed on HLA-A31 positive 1510EBV B cells and tested for T cell recognition based on GM-CSF release ([…], SEQ ID NO: 123; […], SEQ ID NO: 124; […], SEQ ID NO: 125; […], SEQ ID NO: 46; […], SEQ ID NO: 47; […], SEQ ID NO: 126; and […], SEQ ID NO: 127). 1510 EBV alone was used as a negative control. FIG. 7B. 1510EBV B cells were labeled with chromium for 2 h. The ESORF2-10-18 peptide was then pulsed on the chromium-labeled […] (solid square) and HLA-A31-negative 1102EBV (open circle) at different concentrations. 1510EBV pulsed with ESO10-53, which was recognized by CTL clone 5, was used for the specificity control (solid triangle). After peptide incubation and three washes, cytolysis of target cells by CTL-clone 2 was determined in a 4-h chromium release assay at an E:T ratio of 20:1. FIG. 7C. Several tumor lines and fresh breast tumors were tested for recognition by CTL clone 2 to determine whether the ORF2 is translated in different tumors. 1510EBV B cells pulsed with […] (SEQ ID NO: 25) (ESO10-53), […] (SEQ ID NO: 47) (ORF2-10-18), or alone were included to evaluate the reactivity and specificity of CTL clone 2 and 5. Expression of HLA-A31 on the tumor cells is indicated.
(§1) DNA transfection and GM-CSF assay were done as previously described (Wang, R. F., P. F. Robbins, Y. Kawakami, X. Q. Kang, and S. A. Rosenberg, 1995, J. Exp. Med. 181:799–804). Briefly, […] of DNA carrying a different fragment and 50 ng of the HLA-A31 DNA were mixed with 2 μl of lipofectamine in 100 μl of serum-free DMEM for 15–45 min. The DNA/lipofectamine mixture was then added to the COS-7 (5×10^4) cells and incubated overnight. The following day, cells were washed twice with DMEM medium. TIL586, CTL clone 5 or CTL clone 10 were added at a concentration of 5×10^4 cells/well in AIM-V medium containing 120 IU/ml of IL-2. After 18–24 h incubation, 100 μl of supernatant was collected and GM-CSF was measured in a standard ELISA assay (R+D Systems, Minneapolis, Minn.). […]
CTL clone 5 and TIL1244 were used for the specificity controls. […] To test the hypothesis that CTL may recognize a peptide from a gene product translated from an alternative open reading frame of the same gene, synthetic peptides were made with HLA-A31 Binding motif on the basis of amino acid sequence predicted from the second open reading frames (ORF2) (FIG. 3A). […]

TIL1244 = test: T cell recognition of peptide-pulsed 586EBV B cells by TIL1244; conditions: peptide pulsed onto 586EBV B cells (FIG. 6)
Text: FIGS. 6A–6H. CTL clones 2 and 14 recognize the NY-ESO-1 gene, but not the ESO10-53 peptide derived from the NY-ESO-1 protein. CTL clones 2, 14 and 5 recognized NY-ESO-1 when cotransfected with HLA-A31 cDNA into COS-7 (FIG. 6A, C, E and G). TIL1244, which recognized TRP-2 But not NY-ESO-1, was used as a specificity control. FIGS. 6B, D, F and H. CTL clones 2, 5, 14, and TIL1244 recognized 586mel. […] TIL1244 recognized the TRP197-205 peptide derived from TRP-2, 586EBV B cells alone or pulsed with the ORF3P peptide from an alternative reading frame of TRP1 were negative controls. 397mel is an HLA-A31-negative, NY-ESO-1-positive tumor line.
as §1, with “TIL586, CTL clone 5 or CTL clone 10 were added at a concentration of 5×10^4 cells/well in AIM-V medium containing 120 IU/ml of IL-2.” left out

CTL clone 5 = test: GM-CSF release by CTL clone 5 on peptide-pulsed EBV B cells; conditions: for GM-CSF release by CTL clone 5, EXPT. 2 (586EBV): 586EBV cells; for GM-CSF release by CTL clone 5, EXPT. 2 (586EBV) / GM-CSF release by CTL clone 5, EXPT. 1 (1510EBV): peptide 0.1 μg/ml for 90 min, 5 × 10^4 CTL clone 5; for CTL clone 5 GM-CSF release: 1510EBV cells incubated with peptide at 0.1 μg/ml for 90 min; for GM-CSF release by CTL clone 5, EXPT. 1 (1510EBV): 1510EBV cells
Protocol: DNA transfection and GM-CSF assay were done as previously described (Wang, R. F., P. F. Robbins, Y. Kawakami, X. Q. Kang, and S. A. Rosenberg, 1995, J. Exp. Med. 181:799–804). Briefly, […] of DNA carrying a different fragment and 50 ng of the HLA-A31 DNA were mixed with 2 μl of lipofectamine in 100 μl of serum-free DMEM for 15–45 min. The DNA/lipofectamine mixture was then added to the COS-7 (5×10^4) cells and incubated overnight. The following day, cells were washed twice with DMEM medium. TIL586, CTL clone 5 or CTL clone 10 were added at a concentration of 5×10^4 cells/well in AIM-V medium containing 120 IU/ml of IL-2. After 18–24 h incubation, 100 μl of supernatant was collected and GM-CSF was measured in a standard ELISA assay (R+D Systems, Minneapolis, Minn.). For peptides, 586EBV, 1510EBV and T2 cells were incubated with peptides at 37° C. for 90 min, and then washed three times with AIM-V medium containing 120 IU/ml of IL-2. T cells were added and incubated for additional 18–24 h, 100 μl of supernatant was collected for GM-CSF assay. In some experiments, IFN-γ release assays were done using a standard ELISA kit (Endogen, Woburn, Mass.).
These peptides were pulsed onto HLA-A31-positive 1510EBV B cells and tested for their ability to stimulate cytokine release by CTL clone 5. […] CTL clone 10 recognized the same peptide as CTL clone 5 (data not shown). […] The reactivity of CTL clone 5 was undetectable when either the ESO9-54 or the ESO10-127 peptides were used at concentrations below 100 nM to sensitize EBV cells.

Substance	GM-CSF release by CTL clone 5, EXPT. 2 (586EBV) (CTL clone 5)	CTL clone 5 GM-CSF release (CTL clone 5)	GM-CSF release by CTL clone 5, EXPT. 1 (1510EBV) (CTL clone 5)	other results
LAAQERRVPR (listed as Homo sapiens) [ESORF2-10-18]				Lysis of peptide-pulsed HLA-A31-negative 1102EBV by CTL clone 2 (CTL clone 2 [1]): failed to lyse; Lysis of peptide-pulsed 1510EBV by CTL clone 2 (CTL clone 2 [1]; peptide titration): capable of lysing; Recognition by CTL clone 2, in words (CTL clone 2 [2]): recognized
AAQERRVPR (listed as Homo sapiens) [ESORF2-9-19]				Recognition by CTL clone 2, in words (CTL clone 2 [2]): recognized
TRP197-205: peptide derived from TRP-2, recognized by TIL1244; specificity control (LLGPGRPYR; UniProt P40126 197-205, looked up, fragment)				Recognition by TIL1244, in words (TIL1244): recognized
SGPGGGAPR (listed as Homo sapiens) [ESO9-54]	<50 (SEQ. ID NO: 14)	304 (SEQ. ID NO: 14) pg/ml	<50	Recognition by CTL clone 5 (cytokine release), in words (CTL clone 5; peptide pulsed onto HLA-A31-positive 1510EBV or 586EBV B cells): weakly recognized
VSGPGGGAPR (listed as Homo sapiens)	666 (SEQ. ID NO: 42)		825	
RGPRGAGAAR (listed as Homo sapiens) [ESO10-44]		<50 (SEQ. ID NO: 23) pg/ml		
RSGPGGGAPR (listed as Homo sapiens)	<50 (SEQ. ID NO: 44)		<50	
TPMEAELARR (listed as Homo sapiens) [ESO10-98]		<50 (SEQ. ID NO: 19) pg/ml		
AASGLNGCCR (listed as Homo sapiens) [ESO10-68]		<50 (SEQ. ID NO: 21) pg/ml		
PMEAELARR [ESO9-99]		<50 (SEQ. ID NO: 8) pg/ml		
LSGPGGGAPR (listed as Homo sapiens)	<50 (SEQ. ID NO: 43)		<50	
ATPMEAELAR (listed as Homo sapiens) [ESO10-97]		<50 (SEQ. ID NO: 17) pg/ml		
ARASGPGGGAPR (listed as Homo sapiens)	738 (SEQ. ID NO: 29)		840	
TIRLTAADHR (listed as Homo sapiens) [ESO10-34]		<50 (SEQ. ID NO: 16) pg/ml		
ASGPGGGAPK (listed as Homo sapiens)	<50 (SEQ. ID NO: 39)		<50	
AVGPGGGAPR (listed as Homo sapiens)	512 (SEQ. ID NO: 37)		556	
